This is an account of results in article PMC2937036 (PLoS ONE, 2010).

Entries after “also recorded” stand apart in the source; their conditions may differ. Where a SMILES comes first, the peptide text is derived from it. Bridges are numbered along the chain shown (N, C = ends).

Usually half-life stands for the time needed for the level to fall by half in the phase considered. A word on the share remaining: it is what is left of the initial amount, in per cent. The low end stands for a greater loss, the high end for greater stability. What is called Kd is the equilibrium constant for the complex coming apart. Read a high Kd as lower affinity.

The subject of data set [1] is Staphylococcus aureus 42D. Briefly: Bactericidal assay (LD99.9), S. aureus. It counts as cell-based. Particulars: 10 mM phosphate buffer pH 7.0 with 1% TSB, 2 h, 37°C. The procedure:
(§1) The peptides were tested for microbicidal activities against Bacillus subtilis ATCC6633, Escherichia coli ML35, and Staphylococcus aureus 42D as previously described. Suspensions of logarithmically growing test bacteria were incubated on a microtiter plate at a concentration of 10^5 colony-forming units/mL with various peptide dilutions. The medium was 100 µL of 10 mM phosphate buffer pH 7.0 supplemented with 1% (v/v) of tryptic soy broth (TSB). For later assays, human male serum was also added to a final concentration of 25%. 10 µL aliquots were collected at time 0 h and after 2 h of incubation on a rotary shaker (300 rpm) at 37°C. These were plated on blood agar plates and incubated overnight at 37°C. The Lethal Dose concentration (LD99.9) was determined, corresponding to the concentration killing >99.9% of the inoculum at 2 h. These experiments were performed in duplicate.
(§2) For the testing of the peptides' activities in different conditions, e.g. with serum, we use the same cut-off for activity as defined for Minimum Bactericidal Concentration (MBC), i.e. a 1000-fold reduction of the inoculum. However, we designate this peptide concentration with the more general term LD99.9 which can be applied to the specified conditions of the experiments performed here.

A short description of the next data set: in vitro. Particulars: 25% human male serum. The procedure:
To investigate the effects of the modifications on proteolytic susceptibility, the disappearance of the intact peptides incubated in diluted human serum at 37°C was followed by RP-HPLC. […] Incubations were normally done for 9 h and, in some cases, longer.
Peptide stabilities were assayed in diluted serum as previously described. 25% human male serum was centrifuged at 13,000 rpm for 10 min to remove lipids and the supernatant was collected and incubated at 37°C for at least 15 min. The assay was initiated upon the addition of the test peptide to the serum for a final peptide concentration of 5 µM. 200 µL aliquots of the incubations were taken for the following time points: 0, 30, 75, 120, 240, 390 and 540 min. The aliquots were mixed with 40 µL of 15% trichloroacetic acid (TCA) and incubated at 4°C for at least 15 min to precipitate serum proteins. In the case of Com5 and Com6, 5 µL of 1 M NaOH was supplemented to the TCA to prevent peptide precipitation. The supernatant was collected for each sample after centrifugation at 13,000 rpm for 10 min and stored at −20°C. These assays were performed in triplicate.
Reverse phase high performance liquid chromatography (RP-HPLC) analysis was performed with an AKTA Purifier from Amersham Biosciences (Westborough, MA) using an uRPC C2/C18 ST 4.6/100 column from Pharmacia Biotech (SanJose, CA) of the following dimensions: bed length 100 mm, i.d. 4.6 mm, 120Å. Individually thawed samples were injected through a 100 µL loop, after which a linear gradient was run from 100% solution A (0.05% trifluoroacetic acid (TFA) in filtered water) to 100% solution B (0.045% TFA in 90% acetonitrile) with a flow rate at 0.5 mL/min. The relative concentrations of the remaining soluble peptides were analyzed by the integration of the absorbance at 215 nm as a function of retention time using the Analysis module of the Unicorn software package.

Details of data set [2]: method as in PMID 15853943. Particulars: ITC; cited from earlier work.
The test system of the next data set is Escherichia coli ML35. Briefly: Bactericidal assay (LD99.9), E. coli. It counts as cell-based. Particulars: 10 mM phosphate buffer pH 7.0 with 1% TSB, 2 h, 37°C. The procedure: as §1, §2
Data set [3] relates to Bacillus subtilis ATCC6633. The data set can be described thus: Bactericidal assay (LD99.9), B. subtilis. It counts as cell-based. Particulars: 10 mM phosphate buffer pH 7.0 with 1% TSB, 2 h, 37°C. The procedure: as §1, §2
Data set [4] deals with Staphylococcus aureus 42D. The data set can be described thus: Bactericidal assay (LD99.9), S. aureus in 25% human serum. It counts as cell-based. Particulars: unit not given (Table 3 uses µM). The procedure:
In order to be able to make a direct comparison with our serum stability measurements, a few peptides were selected to be tested for antimicrobial activity in 25% human serum (Table 4). […] All LD99.9 values are higher compared to the initial assays in 10 mM sodium phosphate buffer. Contributing factors to this general loss in activity could be the increased ionic concentration, interactions with serum components such as albumin or other proteins, and peptide degradation. Both hexamers with unprotected termini, Lfc1 and Com1, are no longer active while the cyclized short peptides remained fairly antimicrobial. In human serum, Lfc5 and Lfc6 are equally anti-staphylococcal. This reflects a greater loss of activity for Lfc6, but also coincides with the lower serum stability that this peptide has compared to Lfc5 (Fig. 2C). The activities of the cyclized Com peptides were all lowered equally with a 16-fold increase in LD99.9 values compared to activities in serum-excluded media and this agrees with their similar stability profiles (Fig. 2D).
as §1, §2

The target of data set [5] is bovine serum albumin (BSA) (Bos taurus, UniProt P02769). Briefly: biochemical.
bovine serum albumin (BSA), sequence (P02769 25-607): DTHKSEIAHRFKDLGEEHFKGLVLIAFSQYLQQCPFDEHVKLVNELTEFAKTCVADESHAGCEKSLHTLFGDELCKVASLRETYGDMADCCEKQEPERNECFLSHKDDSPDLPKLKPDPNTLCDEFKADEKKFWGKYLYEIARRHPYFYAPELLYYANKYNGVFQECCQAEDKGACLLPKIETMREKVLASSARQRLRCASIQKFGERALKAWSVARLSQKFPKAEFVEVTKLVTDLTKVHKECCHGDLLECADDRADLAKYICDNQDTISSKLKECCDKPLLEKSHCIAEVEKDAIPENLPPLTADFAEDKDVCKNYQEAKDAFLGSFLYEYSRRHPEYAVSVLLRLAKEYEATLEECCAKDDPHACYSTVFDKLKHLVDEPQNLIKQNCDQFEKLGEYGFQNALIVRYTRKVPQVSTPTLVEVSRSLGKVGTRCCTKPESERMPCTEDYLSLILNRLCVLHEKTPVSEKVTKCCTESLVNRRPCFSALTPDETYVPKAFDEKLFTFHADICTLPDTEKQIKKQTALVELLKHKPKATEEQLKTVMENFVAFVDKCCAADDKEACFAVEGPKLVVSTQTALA
Method: (§3) The potential for interactions between various peptides and bovine and human serum albumin (BSA and HSA) were studied by microcalorimetry.
(§4) ITC experiments were performed at 25°C on a Microcal VP-ITC microcalorimeter with data analysis performed with the Microcal Origin software. The sample cell contained 0.1 mM of either BSA or HSA dissolved in 20 mM HEPES, 100 mM NaCl, pH 7.9. The syringe was loaded with 2 mM test peptide in the same buffer, and each titration point resulted from 5 µL injections following an initial 2 µL injection. Separate control experiments were also performed to account for heats of dilution/mixing.
Data set [6] concerns the target human serum albumin (HSA) (Homo sapiens, UniProt P02768). Briefly: biochemical.
Method: as §3, §4
A further data set in a line: 25% human male serum. Particulars: 37°C, up to 540 min.

human serum albumin (HSA), sequence (P02768 25-609): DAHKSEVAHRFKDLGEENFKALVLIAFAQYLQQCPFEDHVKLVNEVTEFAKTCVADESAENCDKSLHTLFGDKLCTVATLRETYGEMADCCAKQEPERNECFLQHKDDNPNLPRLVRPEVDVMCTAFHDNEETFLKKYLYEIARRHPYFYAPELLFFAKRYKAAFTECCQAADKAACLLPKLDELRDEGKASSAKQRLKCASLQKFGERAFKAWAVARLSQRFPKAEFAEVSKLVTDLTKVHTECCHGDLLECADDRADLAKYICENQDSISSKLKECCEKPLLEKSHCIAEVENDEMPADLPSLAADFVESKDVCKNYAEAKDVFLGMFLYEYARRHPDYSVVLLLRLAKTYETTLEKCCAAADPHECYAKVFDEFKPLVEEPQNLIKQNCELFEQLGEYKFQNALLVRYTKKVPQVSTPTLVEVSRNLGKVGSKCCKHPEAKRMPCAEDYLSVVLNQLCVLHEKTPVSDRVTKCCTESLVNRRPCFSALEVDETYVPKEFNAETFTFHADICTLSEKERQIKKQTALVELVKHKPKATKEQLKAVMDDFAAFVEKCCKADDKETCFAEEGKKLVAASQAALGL

With `CC(=O)N[C@@H](CCCNC(=N)N)C(=O)N[C@@H](CCCNC(=N)N)C(=O)N[C@@H](Cc1c[nH]c2ccccc12)C(=O)N[C@@H](Cc1c[nH]c2ccccc12)C(=O)N[C@@H](CCCNC(=N)N)C(=O)N[C@@H](Cc1ccccc1)C(N)=O` [Com4, CH3CO-RRWWRF-NH2] (Ac-RRWWRF-NH2), the “99.9% Lethal Dose Concentration (LD99.9) S. aureus” value in [1] is reported as 7.5 µM. The half-life at 5 µM in “in vitro” (male, human) is ~1.5 h. In addition, in data set [2], the “affinity for negatively charged membranes” value is on record as “micromolar affinity”. In addition, the “99.9% Lethal Dose Concentration (LD99.9) E. coli” value in the data set with Escherichia coli ML35 was 7.5 µM. The “99.9% Lethal Dose Concentration (LD99.9) B. subtilis” value in [3] is 0.9 µM.

Take `CC(=O)N[C@H]1CSSC[C@@H](C(N)=O)NC(=O)[C@H](Cc2ccccc2)NC(=O)[C@H](CCCNC(=N)N)NC(=O)[C@H](Cc2c[nH]c3ccccc23)NC(=O)[C@H](Cc2c[nH]c3ccccc23)NC(=O)[C@H](CCCNC(=N)N)NC(=O)[C@H](CCCNC(=N)N)NC1=O` [Com7, CH3CO-CRRWWRFC-NH2] (Ac-CRRWWRFC-NH2; disulfide 1-8): the “99.9% Lethal Dose Concentration (LD99.9) S. aureus” value in [1] turned out to be 1.9 µM. Moreover, the share remaining at 6.5 h, 5 µM in “in vitro” (male, human) was ~50%. Moreover, the “LD99.9 anti-S. aureus in 25% human serum” value in data set [4] was found to be 30. Further, the equilibrium dissociation constant (Kd) in data set [5] amounted to 210 µM. Also, the “99.9% Lethal Dose Concentration (LD99.9) E. coli” value in the data set with Escherichia coli ML35 is given as 30 µM. Besides, the “99.9% Lethal Dose Concentration (LD99.9) B. subtilis” value in data set [3] is listed as ≤0.45 µM.

Regarding `N=C(N)NCCC[C@H](NC(=O)[C@H](Cc1c[nH]c2ccccc12)NC(=O)[C@H](CCC(N)=O)NC(=O)[C@H](Cc1c[nH]c2ccccc12)NC(=O)[C@H](CCCNC(=N)N)NC(=O)[C@@H](N)CCCNC(=N)N)C(=O)O` [Lfc1, RRWQWR] (H-RRWQWR-OH), the “99.9% Lethal Dose Concentration (LD99.9) S. aureus” value in [1] was found to be 30 µM. The “intact peptide after 2 h” value in “in vitro” (37°C, 2 h) is given as “completely gone”. Further, the half-life at 5 µM in “in vitro” (male, human) is < 0.5 h. Besides, the “LD99.9 anti-S. aureus in 25% human serum” value in data set [4] is recorded as >120. The “99.9% Lethal Dose Concentration (LD99.9) E. coli” value with Escherichia coli ML35 came to 60 µM. Moreover, the “99.9% Lethal Dose Concentration (LD99.9) B. subtilis” value in data set [3] was found to be 7.5 µM.

`N=C(N)NCCC[C@@H]1NC(=O)[C@H](CCCNC(=N)N)NC(=O)[C@H](Cc2c[nH]c3ccccc23)NC(=O)[C@H](CCC(N)=O)NC(=O)[C@H](Cc2c[nH]c3ccccc23)NC(=O)[C@H](CCCNC(=N)N)NC1=O` [Lfc5, -RRWQWR-] (cyclo(RRWQWR)): the “99.9% Lethal Dose Concentration (LD99.9) S. aureus” value in data set [1] stood at 7.5 µM. For the same molecule, in the data set “in vitro” (male, human), the fraction remaining at 6.5 h, 5 µM is > 70% and the share remaining at 24 h, 5 µM was ~50%. Further, the “LD99.9 anti-S. aureus in 25% human serum” value in [4] is given as 60. Also, the “99.9% Lethal Dose Concentration (LD99.9) E. coli” value in the data set on Escherichia coli ML35 is on record as 7.5 µM. For the same molecule, the “99.9% Lethal Dose Concentration (LD99.9) B. subtilis” value in [3] worked out at 1.9 µM.

Turning to `CSCC[C@@H]1NC(=O)[C@H](CCCNC(=N)N)NC(=O)[C@H](Cc2c[nH]c3ccccc23)NC(=O)[C@H](CCC(N)=O)NC(=O)[C@H](Cc2c[nH]c3ccccc23)NC(=O)[C@H](CCCNC(=N)N)NC(=O)[C@H](CCCNC(=N)N)NC(=O)CNC(=O)[C@H](CC(C)C)NC(=O)[C@H](CCCCN)NC(=O)[C@H](CCCCN)NC1=O` [Lfc8, -RRWQWRMKKLG-] (cyclo(RRWQWRMKKLG)), the “99.9% Lethal Dose Concentration (LD99.9) S. aureus” value in data set [1] came out at 15 µM. In data set [6], this molecule yielded a Kd of 150 µM. In the data set with Escherichia coli ML35, the “99.9% Lethal Dose Concentration (LD99.9) E. coli” value is listed as 3.8 µM. The “99.9% Lethal Dose Concentration (LD99.9) B. subtilis” value in [3] is reported as ≤0.45 µM.

Regarding “-RRWQWR- (cyclo(RRWQWR); SMILES N=C(N)NCCC[C@@H]1NC(=O)[C@H](CCCNC(=N)N)NC(=O)[C@H](Cc2c[nH]c3ccccc23)NC(=O)[C@H](CCC(N)=O)NC(=O)[C@H](Cc2c[nH]c3ccccc23)NC(=O)[C@H](CCCNC(=N)N)NC1=O)”, the fragment found result in “25% human male serum” is “Single Cut, 75 min”.

On to “-RRWQWRMKKLG- (cyclo(RRWQWRMKKLG); SMILES CSCC[C@@H]1NC(=O)[C@H](CCCNC(=N)N)NC(=O)[C@H](Cc2c[nH]c3ccccc23)NC(=O)[C@H](CCC(N)=O)NC(=O)[C@H](Cc2c[nH]c3ccccc23)NC(=O)[C@H](CCCNC(=N)N)NC(=O)[C@H](CCCNC(=N)N)NC(=O)CNC(=O)[C@H](CC(C)C)NC(=O)[C@H](CCCCN)NC(=O)[C@H](CCCCN)NC1=O)”, for which, in the data set “25% human male serum”, the fragment found entry is listed as “Single Cut, 75 min”.

In the case of Ac-RRWQWR-NH2, the fragment found entry in “25% human male serum” is listed as “CH3CO-RRWQ, 75 min; also recorded: CH3CO-RRW, 75 min”.

Turning to Ac-RRWQWR-OH, the fragment found entry in the data set “25% human male serum” is listed as “CH3CO-RRWQ, 75 min; also recorded: CH3CO-RRW, 75 min”.

Take Ac-RRWWRF-NH2: the fragment found entry in “25% human male serum” was “CH3CO-RRWW, 75 min; also recorded: CH3CO-RRW, 75 min”.

Take RRWQWRMKKLG: the fragment found entry in the data set “25% human male serum” is “RWQWRM, 75 min; also recorded: WQWRM, 75 min”.
